In assay [1] the test system is Nucleic Acid. The experiment in a line: Binding affinity to calf thymus DNA assessed as change in melting temperature at 10 uM relative to control. The conditions noted are these: Bos taurus. Type of assay: nucleic-acid assay.
Assay [2] concerns HCT-116. The experiment in a line: Toxicity in human HCT116 cells after 96 hrs by MTT assay. The assay is classed as functional. For orientation: Tetrazolium assays rely on reduction of a dye to a coloured formazan, in cell work by metabolically active cells.
The target of assay [3] is T1, Ribosyldihydronicotinamide dehydrogenase [quinone] (Homo sapiens, UniProt P16083).
T1 sequence (P16083 whole entry): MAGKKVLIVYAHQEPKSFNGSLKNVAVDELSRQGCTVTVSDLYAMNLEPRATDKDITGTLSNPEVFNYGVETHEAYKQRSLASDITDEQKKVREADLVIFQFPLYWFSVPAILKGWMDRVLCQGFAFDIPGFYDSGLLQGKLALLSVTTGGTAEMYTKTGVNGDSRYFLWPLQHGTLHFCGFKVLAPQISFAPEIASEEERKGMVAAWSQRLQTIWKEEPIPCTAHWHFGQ
The experiment in a line: Inhibition of human recombinant NQO2 assessed as reduction of DCPIP by spectrophotometry.

The ΔTm is the change in melting temperature against a reference sample. Regarding `COc1cccc2c1C(=O)c1c(O)c3c(c(O)c1C2=O)C[C@@](O)(C(=O)CO)C[C@@H]3O[C@H]1C[C@H](N)[C@H](O)[C@H](C)O1`, in assay [1], the ΔTm amounted to 14.5 °C.

A word on the IC50: it is the concentration needed to halve the response being measured. Take `CCN(CC)CCNc1ccc2nc(C)n3c4ccc(O)cc4c(=O)c1c23`: the shift in melting temperature (ΔTm) in assay [1] amounted to 8.6 °C. The compound also returned an Activity in assay [2] of 3 µM. Also, the IC50 in assay [3] came out at 16 nM.

Take `CCN(CC)CCNc1ccc2ncn3c4ccc(O)cc4c(=O)c1c23` [C-1311]: the ΔTm in assay [1] turned out to be 4.5 °C. For the same compound, in assay [2], the Activity amounted to 0.77 µM. Moreover, the IC50 in assay [3] worked out at 148 nM.

`CCN(CC)CCNc1ccc2nc(C)n3c4ccc(OC)cc4c(=O)c1c23`: the ΔTm in assay [1] amounted to 8.6 °C. In assay [2], this compound displayed an Activity of 3 µM. The IC50 in assay [3] was determined as 9 nM.

For `CCN(CC)CCNc1ccc2ncn3c4ccccc4c(=O)c1c23`, the ΔTm in assay [1] was found to be 6.4 °C. In assay [2], the Activity amounted to 1 µM. Further, the IC50 in assay [3] stood at 427 nM.

Consider `CCc1nc2ccc(NCCN(C)C)c3c(=O)c4ccccc4n1c23`, for which the ΔTm in assay [1] stood at 5.1 °C. The compound further registered an Activity in assay [2] of 0.47 µM. Moreover, the 50% inhibitory concentration (IC50) in assay [3] was found to be 693 nM.

Regarding `CCN(CC)CCNc1ccc2ncn3c4ccc(OC)cc4c(=O)c1c23`, the ΔTm in assay [1] came to 4.5 °C. In assay [2], the Activity came to 2.9 µM. Further, the IC50 in assay [3] was found to be 1000 nM.

Take `CN(C)CCNc1ccc2ncn3c4ccccc4c(=O)c1c23`: the ΔTm in assay [1] stood at 5.6 °C. Also, the Activity in assay [2] was 0.57 µM. Besides, in assay [3], the IC50 was 830 nM.

For the compound `CCN(CC)CCNc1ccc2ncn3c4cc(O)ccc4c(=O)c1c23`, the ΔTm in assay [1] was determined as 5 °C. Further, in assay [2], the Activity worked out at 2.2 µM. Besides, in assay [3], the half-maximal inhibitory concentration (IC50) was determined as 953 nM.

Take `CCN(CC)CCNc1ccc2ncn3c4c(OC)cccc4c(=O)c1c23`: the ΔTm in assay [1] worked out at 5 °C. Also, the Activity in assay [2] turned out to be 1.7 µM. In assay [3], the IC50 was 99 nM.

On to `CN(C)CCCNc1ccc2ncn3c4ccccc4c(=O)c1c23`, for which the ΔTm in assay [1] was 5.2 °C. Also, the Activity in assay [2] was determined as 0.86 µM. The IC50 in assay [3] was 172 nM.

For `Cc1nc2ccc(NCCN(C)C)c3c(=O)c4cc(O)ccc4n1c23`, the ΔTm in assay [1] was found to be 9.1 °C. Further, the Activity in assay [2] worked out at 0.65 µM. Also, in assay [3], the IC50 amounted to 50 nM.

`CCN(CC)CCNc1ccc2ncn3c4cc(OC)c(OC)c(O)c4c(=O)c1c23`: in assay [1], the ΔTm was determined as 1 °C. This compound gave an Activity in assay [2] of 0.95 µM. The IC50 in assay [3] came out at 6 nM.

On to `CCN(CC)CCCNc1ccc2ncn3c4ccc(O)cc4c(=O)c1c23`, for which the ΔTm in assay [1] is 8 °C. Also, the Activity in assay [2] stood at 0.82 µM. Besides, the IC50 in assay [3] was determined as 597 nM.

As for `Cc1nc2ccc(NCCN(C)C)c3c(=O)c4ccccc4n1c23`, the ΔTm in assay [1] stood at 7.1 °C. This compound came in with an Activity in assay [2] of 0.46 µM. For the same compound, the IC50 in assay [3] was 323 nM.

Regarding `CCN(CC)CCNc1ccc2ncn3c4c(OC)ccc(OC)c4c(=O)c1c23`, in assay [1], the ΔTm stood at 1.8 °C. This compound also yielded an Activity in assay [2] of 1.67 µM. Also, the IC50 in assay [3] turned out to be 17 nM.

Turning to `CN(C)CCNc1ccc2ncn3c4ccc(O)cc4c(=O)c1c23`, the ΔTm in assay [1] came out at 5.1 °C. The same compound yielded an Activity in assay [2] of 1 µM. Moreover, in assay [3], the IC50 came to 296 nM.

Turning to `CCN(CC)CCNc1ccc2ncn3c4c(OC)ccc(O)c4c(=O)c1c23`, the ΔTm in assay [1] amounted to 3.1 °C. The compound further returned an Activity in assay [2] of 0.54 µM. In assay [3], the IC50 was found to be 31 nM.
